US20140107143A1, “QUATERNARY OPIOID CARBOXAMIDES” (Rensselaer Polytechnic Institute, priority 2007, published 2014)
Where two headings read alike, the source gives them in different places.

Tests used:
human κ opioid receptor [1] = biological target: T1, human κ opioid receptor (Homo sapiens, UniProt P41145); test: Opioid receptor binding assay, [3H]U69,593 (κ); details: for K: δ / K: μ: ratio of Ki values
human μ opioid receptor [2] = biological target: T2, human μ opioid receptor (Homo sapiens, UniProt P35372); test: Opioid receptor binding assay, [3H]DAMGO (μ)
human δ opioid receptor [3] = biological target: T3, human δ opioid receptor (Homo sapiens, UniProt P41143)
human μ opioid receptor [4] = biological target: T2, human μ opioid receptor; test: [35S]GTPγS binding assay, mu (compound alone / with DAMGO)
Procedure: In a final volume of 0.5 mL, 12 different concentrations of each test compound were incubated with 15 μg (κ), 10 μg (δ) or 7.5 μg (μ) of CHO cell membranes that stably expressed either the human κ or μ opioid receptor. The assay buffer consisted of 50 mM Tris-HCl, pH 7.4, 3 mM MgCl2, 0.2 mM EGTA, 3 μM GDP, and 100 mM NaCl. The final concentration of [35S]GTPγS was 0.080 nM. […] Binding was initiated by the addition of the membranes. […] Data are the mean Emax and EC50 values±S.E.M. from at least three separate experiments, performed in triplicate.

[5] = system: morphine-induced antinociception (tail flick); test: Tail flick antinociception test; assay type: in vivo, mice; details: for effect on response to morphine, tail flick: oral
Procedure: Antinociception to acute thermal stimuli was assessed using a commercially available tail flick apparatus (Columbus Instruments, Columbus, Ohio). The tail flick test is purported to be primarily a […] reflexive response assay. In this standard model, mice are gently restrained and their tail is placed over a thermal beam. Once the beam is turned on (instant on; 9.3 watts), the time required to reflexively flick the tail is recorded. The maximum response latency (MRL) was set to 10 seconds to avoid potential thermal injury associated with longer exposure times. If there is no response after 10 seconds, mice are removed and the maximum response latency (MRL; 10 s) is recorded.
Mice (n=10/group) were first tested in the tail flick test to determine a baseline response. […] The mice were administered different doses of an opioid antagonist (IP or PO, 60 minutes prior to testing in the tail flick test). […] All results are compared to the saline-morphine treatment group mean response latency.

[6] = system: morphine's blockade of PGE2-induced diarrhea; test: PGE2 model of gut motility; assay type: in vivo, mice
Procedure: To assess the effects of novel, peripherally acting opioid antagonists, we used a PGE2 (a prostaglandin) model of gut motility. PGE2 induces diarrhea within 15 minutes of an intraperitoneal (IP) injection (0.1 mg/kg) in mice.
Mice (n=10/group) were given either an IP injection or oral (PO) administration (via gavage) of a novel opioid antagonist (0-3 mg/kg, IP; 0-30 mg/kg, PO) and placed in a Plexiglas pie cage (Braintree Scientific, Braintree, Mass.). Each pie cage holds up to 10 mice and is 21.5 cm in diameter and 7.5 cm in height. Individual chambers are 5 cm (base) and 9 cm (length). […] 30 minutes later mice were treated with PGE2 (0.1 mg/kg, IP) and again returned to the pie cage. During the final observation, the presence or absence of diarrhea was recorded 15 minutes following PGE2 administration. Mice were only tested once. Saline-saline (10 mL/kg, IP) and saline-morphine were the positive control groups and all results were compared to the saline-morphine treatment group. Data represent the percent of mice with PGE2-induced diarrhea at the time of the final observation.

human κ opioid receptor [7] = biological target: T1, human κ opioid receptor; test: [35S]GTPγS binding assay, kappa (compound alone / with U50,488); assay type: biochemical; design: expressed in transfected cells
Source text: Part 4. […] Binding was initiated by the addition of the membranes.

[8] = PK evaluation in rats (plasma, LC-MS/MS); assay type: in vivo; details: oral administration, FIG. 4
Procedure: Animals were dosed with the example compound and blood samples were collected for 2 hours using the following method. Rats were briefly anesthetized with 1-2% isoflurane and blood samples (approximately […] of whole blood) from a lateral tail vein were collected into tubes containing EDTA. The tubes were centrifuged at 10K×g for 2 minutes to separate plasma. Plasma was pipetted into microcentrifuge vials and stored at −80° C. until plasma levels were determined by liquid chromatography-mass spectrometry/mass spectrometry (LC-MS/MS) (modification of Baranczewski et al., 2006). The lower limit of quantitation (LOQ) for these studies was 1.0 ng/mL and the coefficient of variation for the assay was <4.4%. The mean concentration of the example compound in plasma was calculated for each time point. […]
A bioanalytical assay was developed and qualified for measurement of the example compound in rat plasma. […] The intra-day accuracy and precision were evaluated by analysis of each 80 ng/mL, 40 ng/mL, and 8 ng/mL assay control (n=5 at each concentration) on the same day. Accuracy was calculated as a percentage ratio of measured concentration to nominal concentration and precision was expressed as the coefficient of variation. […] accuracy and precision were evaluated for each 80 ng/mL, 40 ng/mL, and 8 ng/mL assay control over 10 different runs (n=26 for each control sample). […]

[9] = system: morphine-induced antinociception (hot plate); test: Hot plate antinociception test; assay type: in vivo, mice
Procedure: Antinociception to acute thermal stimuli was assessed using a commercially available hot plate apparatus (Columbus Instruments, Columbus, Ohio). The hot plate test is purported to be a supraspinal assay of nociception. The hot plate procedure involves placing each mouse on a heated surface and activating a timer. Mice were placed individually on a hot plate (25.4 cm×25.4 cm surrounded by an acrylic box to prevent the animal from escaping); surface temperature=55° C.) and the response latency to lick either hind paw was recorded. The maximum response latency (MRL) was set to 60 seconds to avoid potential thermal injury associated with longer exposure times. The mouse is removed from the heated surface when it either licks a hind paw in response to the heat or after 60 seconds has elapsed. The latency to respond is recorded and the mouse is returned to its home cage.
Mice (n=10/group) were first tested to determine a baseline response. […] Mice were then administered different doses of an opioid antagonist (IP or PO, 60 minutes prior to testing on the hot plate test). […] All results are compared to the saline-morphine treatment group mean response latency.

κ opioid receptors = details: cited from earlier work
antinociception = details: cited from earlier work; for duration of action: 1 mg/kg ip in mice
μ opioid receptors = details: cited from earlier work
human δ opioid receptor [10] = biological target: T3, human δ opioid receptor; test: biochemical
[11] = read-out: [3H]U69,593 (K) Ki, CHO membranes, human receptor, mean ± SEM
[12] = read-out: [3H]DAMGO (μ) Ki, CHO membranes, human receptor, mean ± SEM

T1 sequence (P41145 whole entry): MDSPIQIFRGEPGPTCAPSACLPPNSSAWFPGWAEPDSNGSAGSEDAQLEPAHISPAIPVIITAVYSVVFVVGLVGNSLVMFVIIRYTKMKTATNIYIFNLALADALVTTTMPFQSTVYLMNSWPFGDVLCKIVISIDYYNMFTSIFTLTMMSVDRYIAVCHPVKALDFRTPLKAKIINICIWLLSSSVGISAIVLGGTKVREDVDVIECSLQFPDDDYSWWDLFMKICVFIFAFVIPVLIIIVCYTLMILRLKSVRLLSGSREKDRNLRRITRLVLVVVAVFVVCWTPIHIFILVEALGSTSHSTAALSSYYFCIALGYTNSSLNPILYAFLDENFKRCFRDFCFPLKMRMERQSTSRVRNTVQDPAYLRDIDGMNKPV
T3 sequence (P41143 whole entry): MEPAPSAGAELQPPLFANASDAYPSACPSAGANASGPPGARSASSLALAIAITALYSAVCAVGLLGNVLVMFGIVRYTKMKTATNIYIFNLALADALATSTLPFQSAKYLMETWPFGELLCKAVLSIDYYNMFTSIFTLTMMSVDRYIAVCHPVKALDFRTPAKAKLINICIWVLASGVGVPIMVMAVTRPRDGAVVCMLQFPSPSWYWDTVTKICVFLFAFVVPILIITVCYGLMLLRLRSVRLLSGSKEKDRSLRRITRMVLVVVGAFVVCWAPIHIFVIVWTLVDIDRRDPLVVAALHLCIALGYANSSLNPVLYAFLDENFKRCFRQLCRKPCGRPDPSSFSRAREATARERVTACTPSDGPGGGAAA
T2 sequence (P35372 whole entry): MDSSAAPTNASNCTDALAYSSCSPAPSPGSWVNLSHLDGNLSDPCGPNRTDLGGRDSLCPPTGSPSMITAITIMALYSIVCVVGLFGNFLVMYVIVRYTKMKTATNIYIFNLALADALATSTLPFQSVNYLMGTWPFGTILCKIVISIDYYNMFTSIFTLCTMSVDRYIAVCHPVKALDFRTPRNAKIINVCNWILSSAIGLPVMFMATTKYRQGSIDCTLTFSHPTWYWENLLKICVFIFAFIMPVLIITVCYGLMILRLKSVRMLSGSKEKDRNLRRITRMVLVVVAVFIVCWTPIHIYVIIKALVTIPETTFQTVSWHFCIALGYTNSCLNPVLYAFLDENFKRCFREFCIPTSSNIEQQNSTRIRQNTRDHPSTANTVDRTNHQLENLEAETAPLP

SMILES: C[N+]1(CC2CC2)CC[C@]23c4c5ccc(O)c4O[C@H]2C(=O)CC[C@@]3(O)[C@H]1C5 (stereo partly shown) [Compound 2, Naltrexone Methiodide, reference compound]
- K: δ (human κ opioid receptor [1]): 143
- K: μ (human κ opioid receptor [1]): 0.32
- Ki (human κ opioid receptor [1]; [11]): 6.3 ± 0.46 nM
- Ki (human μ opioid receptor [2]; [12]): 2 ± 0.27 nM

SMILES: C[N+]1(CC2CC2)CC[C@]23c4c5ccc(C(N)=O)c4O[C@H]2C(=O)CC[C@@]3(O)[C@H]1C5 (stereo partly shown) [Compound 4, 3-Carboxamido-naltrexone methiodide]
- melting point: 189 to 190 °C
- K: δ (human κ opioid receptor [1]): 143
- K: μ (human κ opioid receptor [1]): 0.18
- Ki (human κ opioid receptor [1]; [11]): 210 ± 22 nM
- [3H]Naltrindole (δ) inhibition (human δ opioid receptor [3]; @ 10 μm): 31% inh. @ 10 μm

SMILES: C[N+]1(CC2CC2)CC[C@]23CC(=O)CC[C@@]2(O)[C@H]1Cc1ccc(C(N)=O)c(O)c13 (stereo partly shown) [Compound 6, 3-Carboxamido-4-hydroxy-naltrexone methiodide]
- melting point: 197 to 198 °C
- Emax (human μ opioid receptor [4]; read-out: Mu Cmpd. Alone Emax): -0.28 ± 0.39%
- IC50 (human μ opioid receptor [4]; read-out: Mu With DAMGO IC50, with 200 nM DAMGO, Mean ± S.E): 52 nM
- Mu With DAMGO Imax (human μ opioid receptor [4]; with 200 nM DAMGO, Mean ± S.E): 96 ± 1.2%
- blocking the analgesic effects of morphine, tail flick ([5]; mice, IP route): moderately effective
- blocking the effects of morphine, tail flick ([5]; mice, oral administration): much less effective
- effect on response to morphine, tail flick ([5]; mice, 10 mg/kg): did not affect the response to morphine
- effect on response to morphine, tail flick ([5]; mice, maximum dose 30 mg/kg, FIG. 2): only partially reverse
- activity in blocking PGE2-induced diarrhea ([6]; mice, doses of 1-10 mg/kg, both routes (IP, PO)): very good activity
- reversal of the effects of morphine on PGE2-induced diarrhea ([6]; mice, each route, IP and PO, FIG. 1): dose-dependent reversal of the effects of morphine
- K: μ (human κ opioid receptor [1]): 0.17
- Ki (human κ opioid receptor [1]; [11]): 7.7 ± 0.9 nM
- Ki (human δ opioid receptor [3]; read-out: [3H]Naltrindole (δ) Ki, CHO membranes, human receptor, mean ± SEM): 280 ± 21 nM
- agonist properties at the κ opioid receptor (human κ opioid receptor [7]; compound alone): did not display any agonist properties
- Emax (human κ opioid receptor [7]; compound alone, Mean ± S.E, read-out: Kappa Cmpd. Alone Emax): 3 ± 2.6%
- IC50 (human κ opioid receptor [7]; with 100 nM U50,488, Mean ± S.E): 7800 ± 530 nM
- absorption [8]: low
- Ki (human μ opioid receptor [2]; [12]): 1.3 ± 0.13 nM
- blocking the analgesic effects of morphine, hot plate ([9]; mice, IP route, FIG. 3): marginally effective
- change from the baseline morphine response, hot plate ([9]; mice, IP, 3 mg/kg): 20-25%
- effect on the response to morphine, hot plate ([9]; mice, orally, doses up to 30 mg/kg): no effect

SMILES: CC1C2Cc3ccc(O)cc3C1(C)CC[N+]2(C)CC1CC1 (stereo not shown) [Compound 8, Cyclazocine methiodide]
- melting point: 165 to 168 °C
- K: δ (human κ opioid receptor [1]): 95
- K: μ (human κ opioid receptor [1]): 0.2

SMILES: C[C@H]1C2Cc3ccc(C(N)=O)cc3[C@@]1(C)CCN2CC1CC1 [Compound 8-CAC, 8-carboxamidocyclazocine]
- affinity for κ opioid receptors (κ opioid receptors): high affinity
- duration of action (antinociception): 15 h
- antinociception activity (antinociception; in vivo, mice): high antinociception activity
- affinity for μ opioid receptors (μ opioid receptors): high affinity

SMILES: CC1C2Cc3ccc(C(N)=O)cc3C1(C)CC[N+]2(C)CC1CC1 (stereo not shown) [Compound 10, 8-Carboxamido-cyclazocine methiodide]
- melting point: 237 to 238 °C
- Ki (human κ opioid receptor [1]): 17 ± 1.2 nM
- K: δ (human κ opioid receptor [1]): 21
- K: μ (human κ opioid receptor [1]): 0.082
- Ki (human δ opioid receptor [10]): 360 ± 6.5 nM
- Ki (human μ opioid receptor [2]): 1.4 ± 0.19 nM

SMILES: C[N@+]1(CC2CC2)CC[C@]23CCCC[C@@]2(O)[C@H]1Cc1ccc(C(N)=O)c(O)c13.[Cl-] [Compound 14, (17R)-17-(Cyclopropylmethyl)-4,14-dihydroxy-17-methylmorphinan-17-ium-3-carboxamide chloride]
- difference from baseline, tail flick ([5]; even at 30 mg/kg): no statistical difference from baseline
- effect on morphine's ability to block PGE2-induced diarrhea ([6]; IP administration at 3 mg/kg): reduces morphine's ability to block PGE2-induced diarrhea
- central activity (hot plate) ([9]; hot plate test): poor central activity
- dose at which a statistical difference from baseline is first seen, hot plate ([9]; hot plate test): 30 mg/kg
- hot plate dose relative to dose required in the PGE2 test ([9]; hot plate vs PGE2 test): 3 to 10 times higher dose

SMILES: C[C@H]1[C@H]2Cc3ccc(O)cc3[C@]1(C)CCN2CC1CC1 [cyclazocine]
- duration of action (antinociception): 2 h
